Reference: ChEMBL document CHEMBL4507323, “Data for DCP probe Ogerin” (2021)
Values belong to the molecule of their own block, whether it stands above or below them.

Key:
[1] = target: T1, 5-hydroxytryptamine receptor 2B (Homo sapiens, UniProt P41595); test: GPCRScan assay: inhibition of 5-HT2B; parameters: radioligand conc. used [nm] 1.0 – 2.0, parental cells stable HEK
[2] = target: 5-hydroxytryptamine receptor 1A (Homo sapiens) (UniProt P08908); conditions: Compound concentration 10.0 uM
[3] = target: 5-hydroxytryptamine receptor 1B (Homo sapiens) (UniProt P28222); conditions: Compound concentration 10.0 uM
[4] = target: 5-hydroxytryptamine receptor 1D (Homo sapiens) (UniProt P28221); conditions: Compound concentration 10.0 uM
[5] = target: 5-hydroxytryptamine receptor 2A (Homo sapiens) (UniProt P28223); conditions: Compound concentration 10.0 uM
[6] = target: T1, 5-hydroxytryptamine receptor 2B; conditions: Compound concentration 10.0 uM
[7] = target: 5-hydroxytryptamine receptor 2C (Homo sapiens) (UniProt P28335); conditions: Compound concentration 10.0 uM
[8] = target: 5-hydroxytryptamine receptor 3A (Homo sapiens) (UniProt P46098); conditions: Compound concentration 10.0 uM
[9] = target: 5-hydroxytryptamine receptor 5A (Homo sapiens) (UniProt P47898); conditions: Compound concentration 10.0 uM
[10] = target: 5-hydroxytryptamine receptor 6 (Homo sapiens) (UniProt P50406); conditions: Compound concentration 10.0 uM
[11] = target: 5-hydroxytryptamine receptor 7 (Homo sapiens) (UniProt P34969); conditions: Compound concentration 10.0 uM
[12] = target: D(1A) dopamine receptor (Homo sapiens) (UniProt P21728); conditions: Compound concentration 10.0 uM
[13] = target: D(2) dopamine receptor (Homo sapiens) (UniProt P14416); conditions: Compound concentration 10.0 uM
[14] = target: D(3) dopamine receptor (Homo sapiens) (UniProt P35462); conditions: Compound concentration 10.0 uM
[15] = target: D(4) dopamine receptor (Homo sapiens) (UniProt P21917); conditions: Compound concentration 10.0 uM
[16] = target: D(1B) dopamine receptor (Homo sapiens) (UniProt P21918); conditions: Compound concentration 10.0 uM
[17] = target: Sodium-dependent serotonin transporter (Homo sapiens) (UniProt P31645); conditions: Compound concentration 10.0 uM
[18] = target: Sodium-dependent noradrenaline transporter (Homo sapiens) (UniProt P23975); conditions: Compound concentration 10.0 uM
[19] = target: Sodium-dependent dopamine transporter (Homo sapiens) (UniProt Q01959); conditions: Compound concentration 10.0 uM
[20] = target: Mu-type opioid receptor (Homo sapiens) (UniProt P35372); conditions: Compound concentration 10.0 uM
[21] = target: Delta-type opioid receptor (Homo sapiens) (UniProt P41143); conditions: Compound concentration 10.0 uM
[22] = target: Kappa-type opioid receptor (Homo sapiens) (UniProt P41145); conditions: Compound concentration 10.0 uM
[23] = target: T2, GABA-A receptor; anion channel (Rattus norvegicus) (UniProt O09028+P15431+P18506+P18508+P19969+P20236+P23574+P23576+P28471+P28473+P30191+P62813+P63079+P63138+Q91ZM7+Q9ES14); conditions: Compound concentration 10.0 uM
[24] = target: Histamine H1 receptor (Homo sapiens) (UniProt P35367); conditions: Compound concentration 10.0 uM
[25] = target: Histamine H3 receptor (Homo sapiens) (UniProt Q9Y5N1); conditions: Compound concentration 10.0 uM
[26] = target: Histamine H4 receptor (Homo sapiens) (UniProt Q9H3N8); conditions: Compound concentration 10.0 uM
[27] = target: Alpha-1A adrenergic receptor (Homo sapiens) (UniProt P35348); conditions: Compound concentration 10.0 uM
[28] = target: Alpha-2A adrenergic receptor (Homo sapiens) (UniProt P08913); conditions: Compound concentration 10.0 uM
[29] = target: Alpha-2B adrenergic receptor (Homo sapiens) (UniProt P18089); conditions: Compound concentration 10.0 uM
[30] = target: Alpha-2C adrenergic receptor (Homo sapiens) (UniProt P18825); conditions: Compound concentration 10.0 uM
[31] = target: Beta-1 adrenergic receptor (Homo sapiens) (UniProt P08588); conditions: Compound concentration 10.0 uM
[32] = target: Beta-2 adrenergic receptor (Homo sapiens) (UniProt P07550); conditions: Compound concentration 10.0 uM
[33] = target: Muscarinic acetylcholine receptor M1 (Homo sapiens) (UniProt P11229); conditions: Compound concentration 10.0 uM
[34] = target: Muscarinic acetylcholine receptor M2 (Homo sapiens) (UniProt P08172); conditions: Compound concentration 10.0 uM
[35] = target: Muscarinic acetylcholine receptor M3 (Homo sapiens) (UniProt P20309); conditions: Compound concentration 10.0 uM
[36] = target: Muscarinic acetylcholine receptor M4 (Homo sapiens) (UniProt P08173); conditions: Compound concentration 10.0 uM
[37] = target: Beta-3 adrenergic receptor (Homo sapiens) (UniProt P13945); conditions: Compound concentration 10.0 uM
[38] = target: T2, GABA-A receptor; anion channel (Rattus norvegicus); conditions: Compound concentration 10.0 uM; remark: listed apart in the source
Rattus norvegicus = species: Rattus norvegicus; conditions: Compound concentration 10.0 uM
[39] = target: Alpha-1D adrenergic receptor (Homo sapiens) (UniProt P25100); conditions: Compound concentration 10.0 uM
[40] = target: Sigma non-opioid intracellular receptor 1 (Homo sapiens) (UniProt Q99720); conditions: Compound concentration 10.0 uM
[41] = target: 5-hydroxytryptamine receptor 1A (Homo sapiens, UniProt P08908); test: GPCRScan assay: inhibition of 5-HT1A; parameters: radioligand conc. used [nm] 0.5 – 1.0, parental cells stable CHO
[42] = target: Histamine H2 receptor (Homo sapiens) (UniProt P25021); conditions: Compound concentration 10.0 uM
[43] = target: Alpha-1B adrenergic receptor (Homo sapiens) (UniProt P35368); conditions: Compound concentration 10.0 uM
[44] = target: Muscarinic acetylcholine receptor M5 (Homo sapiens) (UniProt P08912); conditions: Compound concentration 10.0 uM
[45] = target: Sigma intracellular receptor 2 (Homo sapiens) (UniProt Q5BJF2); conditions: Compound concentration 10.0 uM

T1 sequence (P41595 whole entry): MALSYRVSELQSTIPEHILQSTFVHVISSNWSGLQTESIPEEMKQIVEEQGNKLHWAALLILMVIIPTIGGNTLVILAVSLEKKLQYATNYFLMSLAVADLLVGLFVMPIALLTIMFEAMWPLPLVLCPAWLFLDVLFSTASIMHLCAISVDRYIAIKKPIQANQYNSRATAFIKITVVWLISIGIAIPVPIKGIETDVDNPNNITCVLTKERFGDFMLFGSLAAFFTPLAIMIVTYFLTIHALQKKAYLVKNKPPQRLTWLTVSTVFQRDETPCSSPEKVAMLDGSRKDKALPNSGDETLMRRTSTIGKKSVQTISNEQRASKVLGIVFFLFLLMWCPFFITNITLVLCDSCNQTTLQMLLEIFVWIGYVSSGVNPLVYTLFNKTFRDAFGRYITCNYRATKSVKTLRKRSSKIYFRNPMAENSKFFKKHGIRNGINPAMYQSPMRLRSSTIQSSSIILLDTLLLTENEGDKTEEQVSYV
5-hydroxytryptamine receptor 2A (Homo sapiens), sequence (P28223 whole entry): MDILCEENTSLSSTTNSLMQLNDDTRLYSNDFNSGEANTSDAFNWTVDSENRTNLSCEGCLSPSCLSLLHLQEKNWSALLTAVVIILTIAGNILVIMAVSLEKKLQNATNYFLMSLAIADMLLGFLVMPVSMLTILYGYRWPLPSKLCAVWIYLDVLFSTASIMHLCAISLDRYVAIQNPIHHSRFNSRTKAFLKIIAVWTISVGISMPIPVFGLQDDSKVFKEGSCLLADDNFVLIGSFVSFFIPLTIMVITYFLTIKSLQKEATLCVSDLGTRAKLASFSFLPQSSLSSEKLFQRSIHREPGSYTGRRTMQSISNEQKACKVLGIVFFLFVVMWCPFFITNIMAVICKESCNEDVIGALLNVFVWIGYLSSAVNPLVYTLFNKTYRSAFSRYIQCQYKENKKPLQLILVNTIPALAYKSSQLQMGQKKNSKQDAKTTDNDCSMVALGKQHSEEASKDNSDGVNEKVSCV
Sodium-dependent noradrenaline transporter (Homo sapiens), sequence (P23975 whole entry): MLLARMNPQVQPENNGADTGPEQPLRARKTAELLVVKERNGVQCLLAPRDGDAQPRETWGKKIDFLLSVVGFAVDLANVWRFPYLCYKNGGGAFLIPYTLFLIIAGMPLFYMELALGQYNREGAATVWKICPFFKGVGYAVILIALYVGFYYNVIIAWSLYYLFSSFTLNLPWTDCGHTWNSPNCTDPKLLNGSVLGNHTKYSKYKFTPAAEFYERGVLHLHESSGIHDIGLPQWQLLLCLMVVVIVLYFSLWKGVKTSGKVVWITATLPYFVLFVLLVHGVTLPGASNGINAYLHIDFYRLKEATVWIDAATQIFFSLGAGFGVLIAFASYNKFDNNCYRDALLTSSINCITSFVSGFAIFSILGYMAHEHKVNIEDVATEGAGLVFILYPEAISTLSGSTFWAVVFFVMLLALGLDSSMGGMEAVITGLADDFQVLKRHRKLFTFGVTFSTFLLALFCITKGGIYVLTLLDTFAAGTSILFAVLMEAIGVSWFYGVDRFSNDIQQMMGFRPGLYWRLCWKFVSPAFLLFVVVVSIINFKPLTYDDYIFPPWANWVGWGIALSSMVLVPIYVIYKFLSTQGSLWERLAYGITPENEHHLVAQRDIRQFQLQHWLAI
Histamine H1 receptor (Homo sapiens), sequence (P35367 whole entry): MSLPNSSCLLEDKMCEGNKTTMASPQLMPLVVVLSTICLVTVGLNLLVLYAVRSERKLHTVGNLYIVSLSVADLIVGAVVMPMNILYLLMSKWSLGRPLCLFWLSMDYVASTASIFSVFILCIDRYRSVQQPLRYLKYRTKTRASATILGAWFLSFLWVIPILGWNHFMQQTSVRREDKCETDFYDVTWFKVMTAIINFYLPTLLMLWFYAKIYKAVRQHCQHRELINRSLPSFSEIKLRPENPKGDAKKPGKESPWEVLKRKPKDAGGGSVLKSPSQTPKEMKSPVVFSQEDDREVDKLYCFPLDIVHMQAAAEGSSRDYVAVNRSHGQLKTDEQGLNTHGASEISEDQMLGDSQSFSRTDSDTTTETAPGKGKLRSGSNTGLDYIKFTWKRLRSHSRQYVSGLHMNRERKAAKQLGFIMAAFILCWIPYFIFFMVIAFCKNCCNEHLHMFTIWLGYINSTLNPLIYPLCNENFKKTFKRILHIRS
Beta-1 adrenergic receptor (Homo sapiens), sequence (P08588 whole entry, looked up): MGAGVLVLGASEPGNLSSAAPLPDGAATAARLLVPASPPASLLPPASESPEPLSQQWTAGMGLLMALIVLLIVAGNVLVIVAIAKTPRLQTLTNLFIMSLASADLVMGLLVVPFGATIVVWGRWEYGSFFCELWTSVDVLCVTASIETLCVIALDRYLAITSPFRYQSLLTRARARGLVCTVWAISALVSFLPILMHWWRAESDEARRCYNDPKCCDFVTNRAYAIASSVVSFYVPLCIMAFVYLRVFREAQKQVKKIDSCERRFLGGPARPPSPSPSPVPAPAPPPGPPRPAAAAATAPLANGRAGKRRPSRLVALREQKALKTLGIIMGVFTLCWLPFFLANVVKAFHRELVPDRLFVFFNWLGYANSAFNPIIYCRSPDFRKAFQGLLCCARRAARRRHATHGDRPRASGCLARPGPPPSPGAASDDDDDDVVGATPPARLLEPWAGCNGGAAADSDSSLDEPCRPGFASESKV
Sodium-dependent serotonin transporter (Homo sapiens), sequence (P31645 whole entry, looked up): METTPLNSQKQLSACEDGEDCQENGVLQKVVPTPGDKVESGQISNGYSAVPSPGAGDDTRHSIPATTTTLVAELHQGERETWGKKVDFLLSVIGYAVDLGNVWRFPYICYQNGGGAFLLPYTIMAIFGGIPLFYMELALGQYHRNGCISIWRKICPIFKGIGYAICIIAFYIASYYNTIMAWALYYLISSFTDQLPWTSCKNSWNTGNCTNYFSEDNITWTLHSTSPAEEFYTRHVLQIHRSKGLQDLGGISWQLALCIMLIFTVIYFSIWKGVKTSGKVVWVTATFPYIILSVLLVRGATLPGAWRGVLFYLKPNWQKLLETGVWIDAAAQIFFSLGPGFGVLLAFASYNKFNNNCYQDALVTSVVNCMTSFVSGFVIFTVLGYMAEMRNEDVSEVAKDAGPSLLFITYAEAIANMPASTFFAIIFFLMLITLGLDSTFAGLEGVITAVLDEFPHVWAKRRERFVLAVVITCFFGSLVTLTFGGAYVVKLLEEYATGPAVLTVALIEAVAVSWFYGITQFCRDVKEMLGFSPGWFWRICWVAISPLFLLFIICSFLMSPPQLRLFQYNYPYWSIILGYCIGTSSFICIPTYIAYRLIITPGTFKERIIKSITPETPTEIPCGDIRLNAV
Alpha-2B adrenergic receptor (Homo sapiens), sequence (P18089 whole entry): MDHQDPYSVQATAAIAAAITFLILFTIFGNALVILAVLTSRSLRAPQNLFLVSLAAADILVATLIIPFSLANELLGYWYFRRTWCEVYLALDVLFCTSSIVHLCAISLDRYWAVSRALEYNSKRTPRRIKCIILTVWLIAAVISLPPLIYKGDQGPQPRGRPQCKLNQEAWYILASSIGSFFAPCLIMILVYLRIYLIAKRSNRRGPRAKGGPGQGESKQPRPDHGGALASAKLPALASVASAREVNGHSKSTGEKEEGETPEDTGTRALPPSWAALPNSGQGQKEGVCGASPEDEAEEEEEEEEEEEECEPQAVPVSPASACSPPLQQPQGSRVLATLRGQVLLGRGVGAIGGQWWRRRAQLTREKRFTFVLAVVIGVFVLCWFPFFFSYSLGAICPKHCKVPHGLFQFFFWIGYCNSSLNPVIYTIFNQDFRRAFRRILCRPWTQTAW
Muscarinic acetylcholine receptor M4 (Homo sapiens), sequence (P08173 whole entry): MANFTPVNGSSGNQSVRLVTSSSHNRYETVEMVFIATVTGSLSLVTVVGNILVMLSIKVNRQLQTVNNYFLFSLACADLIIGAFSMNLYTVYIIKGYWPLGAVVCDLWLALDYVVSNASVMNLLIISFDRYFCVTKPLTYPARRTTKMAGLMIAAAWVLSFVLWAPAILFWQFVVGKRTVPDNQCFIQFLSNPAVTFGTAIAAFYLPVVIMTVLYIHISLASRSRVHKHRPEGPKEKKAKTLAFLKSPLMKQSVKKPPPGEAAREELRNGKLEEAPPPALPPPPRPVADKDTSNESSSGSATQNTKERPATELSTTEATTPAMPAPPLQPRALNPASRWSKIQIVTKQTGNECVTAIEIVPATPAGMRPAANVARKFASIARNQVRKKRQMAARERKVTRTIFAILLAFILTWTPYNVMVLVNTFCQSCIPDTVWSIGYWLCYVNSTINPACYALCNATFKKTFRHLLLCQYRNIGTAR
Kappa-type opioid receptor (Homo sapiens), sequence (P41145 whole entry): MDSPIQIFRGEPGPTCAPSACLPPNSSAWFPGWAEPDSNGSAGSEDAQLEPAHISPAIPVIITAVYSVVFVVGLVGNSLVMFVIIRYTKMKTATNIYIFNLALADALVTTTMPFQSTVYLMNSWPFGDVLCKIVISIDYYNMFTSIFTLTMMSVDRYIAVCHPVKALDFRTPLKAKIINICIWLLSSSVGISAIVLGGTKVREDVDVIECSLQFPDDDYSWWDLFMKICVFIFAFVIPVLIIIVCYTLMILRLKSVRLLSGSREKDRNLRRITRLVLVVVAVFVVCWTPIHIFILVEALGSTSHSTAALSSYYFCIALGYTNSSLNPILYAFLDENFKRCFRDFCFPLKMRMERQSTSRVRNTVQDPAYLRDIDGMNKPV
Alpha-2C adrenergic receptor (Homo sapiens), sequence (P18825 whole entry): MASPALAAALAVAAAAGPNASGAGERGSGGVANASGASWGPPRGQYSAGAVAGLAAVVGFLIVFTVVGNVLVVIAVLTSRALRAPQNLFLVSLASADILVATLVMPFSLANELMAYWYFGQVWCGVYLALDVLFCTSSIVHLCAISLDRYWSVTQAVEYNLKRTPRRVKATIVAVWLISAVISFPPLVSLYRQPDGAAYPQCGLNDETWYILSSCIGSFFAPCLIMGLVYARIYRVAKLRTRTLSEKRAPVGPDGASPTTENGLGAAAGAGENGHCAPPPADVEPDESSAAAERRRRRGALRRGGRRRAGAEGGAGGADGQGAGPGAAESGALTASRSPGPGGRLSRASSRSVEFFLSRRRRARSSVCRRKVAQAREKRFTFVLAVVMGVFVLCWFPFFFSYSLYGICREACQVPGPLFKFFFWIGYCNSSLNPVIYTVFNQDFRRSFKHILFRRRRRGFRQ

Ki ([1]; read-out: Ki): 496 nM
Ki ([1]; read-out: pKi (converted)): 490 nM
inhibition [2]: 9.7%
inhibition [3]: 7.41%
inhibition [4]: 11.2%
inhibition [5]: 2.78%
inhibition [6]: 81%
inhibition [7]: 9.32%
inhibition [8]: 2.24%
inhibition [9]: 10.6%
inhibition [10]: 19.4%
inhibition [11]: 43.9%
inhibition [12]: 33.7%
inhibition [13]: 10%
inhibition [14]: 18.9%
inhibition [15]: 4.35%
inhibition [16]: 43.9%
inhibition [17]: 4.96%
inhibition [18]: 32.1%
inhibition [19]: 18.1%
inhibition [20]: 11.9%
inhibition [21]: 12.5%
inhibition [22]: 30.2%
inhibition [23]: 19.7%
inhibition [24]: -4.07%
inhibition [25]: -1.93%
inhibition [26]: 8.3%
inhibition [27]: 25.5%
inhibition [28]: 24.4%
inhibition [29]: 43.9%
inhibition [30]: 0.87%
inhibition [31]: 25.5%
inhibition [32]: 20.7%
inhibition [33]: 23.6%
inhibition [34]: 23.2%
inhibition [35]: 36%
inhibition [36]: -9.42%
inhibition [37]: 14.8%
inhibition [38]: 32.9%
inhibition (Rattus norvegicus): 12.9%
inhibition [39]: 4.63%
inhibition [40]: -0.41%
pEC50 (FLIPR-TETRA assay): 6.83
SMILES: Nc1nc(NCc2ccccc2)nc(-c2ccccc2CO)n1 [Ogerin]

Ki ([41]; read-out: Ki): 850 nM
Ki ([41]; read-out: pKi (converted)): 832 nM
inhibition [2]: 65.5%
inhibition [3]: -2.86%
inhibition [4]: 13.7%
inhibition [5]: 1.28%
inhibition [6]: 41.8%
inhibition [7]: 3.72%
inhibition [8]: 37.2%
inhibition [9]: 0.66%
inhibition [10]: 26.7%
inhibition [11]: 15.9%
inhibition [12]: 3.99%
inhibition [13]: -7.4%
inhibition [14]: 8.38%
inhibition [15]: 24.4%
inhibition [17]: 9.44%
inhibition [18]: 43.6%
inhibition [19]: -9.76%
inhibition [20]: 8.68%
inhibition [21]: 9.2%
inhibition [22]: 10.8%
inhibition [24]: -5.64%
inhibition [42]: 4.01%
inhibition [25]: 6.14%
inhibition [26]: -9.05%
inhibition [27]: 5.91%
inhibition [43]: 5.01%
inhibition [28]: 7.24%
inhibition [29]: 21.8%
inhibition [30]: 1.4%
inhibition [31]: -3.07%
inhibition [32]: 18%
inhibition [33]: 35.2%
inhibition [34]: 10.8%
inhibition [35]: 18.3%
inhibition [36]: 21.6%
inhibition [44]: 12.8%
inhibition [37]: 17.8%
inhibition [38]: 18.3%
inhibition (Rattus norvegicus): 8.6%
inhibition [39]: -8.75%
inhibition [45]: 12.3%
inhibition [40]: 0.95%
SMILES: Nc1nc(NCc2ccccc2)nc(-c2cccc(CO)c2)n1 [ZINC32547799]
